pEC50: −log10 of the molar value.
Tests used:
Format in all cases: cell-based
[1] = tested on: Wnt activity (Sp5-Luc reporter, SW480 colon carcinoma cells); assay: Wnt activity screening assay, Sp5-Luc reporter gene in SW480 cells; details: Homo sapiens; for inhibition at 10 µM: SW480, read-out: percent inhibition at 10 μM; for pEC50: Sp5-Luc reporter, SW480 cells, overnight incubation
From the text: The screening assay for Wnt activity is described as follows. Reporter cell lines can be generated by stably transducing cancer cell lines (e.g., colon cancer) or primary cells (e.g., IEC-6 intestinal cells) with a lentiviral construct that includes a Wnt-responsive promoter driving expression of the firefly luciferase gene.
SW480 colon carcinoma cells were transduced with a lentiviral vector expressing luciferase with a human Sp5 promoter consisting of a sequence of eight TCF/LEF binding sites. SW480 cells stably expressing the Sp5-Luc reporter gene and a hygromycin resistance gene were selected by treatment with 150 μg/mL of hygromycin for 7 days. These stably transduced SW480 cells were expanded in cell culture and used for all further screening activities. […] For Sp5-Luc reporter gene assays, the cells were plated at 4,000 cells/well in 384-well plates with medium containing 1% fetal bovine serum and incubated overnight at 37° C. and 5% CO2. Following incubation, 20 μl of BrightGlo luminescence reagent (Promega) was added to each well of the 384-well assay plates. The plates were placed on an orbital shaker for 2 min and then luminescence was quantified using the Envision (Perkin Elmer) plate reader. Readings were normalized to DMSO only treated cells, and normalized activities were utilized for EC50 calculations using the dose-response log (inhibitor) vs. response -variable slope (four parameters) nonlinear regression feature available in GraphPad Prism 5.0 (or Dotmatics).

SW480 colon cancer cells = assay: Cell viability assay (CellTiter-Blue), SW480 cells, four days; details: Homo sapiens; for pEC50: 96 h, SW480 cell viability, four days, CellTiter-Blue; for inhibition at 10 µM: SW480, read-out: percent inhibition at 10 μM
Description: Representative compounds were screened using the following assay procedure to assess the effect on cell viability as described below.
Approximately 2×10^3 SW480 colon cancer cells were seeded into each well and allowed to incubate in the presence or absence of compound for four days at 37° C./5% CO2. Eight replicates of DMSO-treated cells served as controls and cells treated with compound were performed in duplicate.
After incubation, 20 μL of CellTiter-Blue (Promega) was added to each well allowed to incubate for approximately 3 hours. This reagent was a buffered solution which contains resazurin, metabolically active cells were able to reduce rezarurin (blue) into resorufin (pink) which was highly fluorescent. This measured fluorescence was used as a readout for cell viability.

[2] = tested on: primary human fibroblasts derived from IPF patients (LL29 cells) treated with TGF-β1; assay: Inhibition of the fibrotic process: αSMA staining in TGF-β1 treated LL29 fibroblasts; details: Fibroblast; for pEC50: 96 h, LL29 cells, TGF-β1 20 ng/mL, 4 days, % αSMA positive cells; for inhibition at 10 µM: read-out: percent inhibition at 10 μM
Description: Representative compounds were screened using primary human fibroblasts (derived from IPF patients) treated with TGF-β1 to determine their ability to inhibit the fibrotic process.
LL29 cells are plated at 1,500 cells/well in 80 μL/well F12 medium supplemented with 1% Fetal Bovine Serum. […] Wells treated with TGF-β1 and containing DMSO were used as controls. […] Following incubation for 4 days, SYTOX green nucleic acid stain (Life Technologies [Thermo Fisher Scientific]) was added to the wells at a final concentration of 1 μM and incubated at room temperature for 30 min.

[3] = tested on: IL-6 (THP-1 human monocyte cell line); assay: IL-6 inhibition in LPS-stimulated THP-1 cells (HTRF); details: for pEC50: IL-6 inhibition, LPS-stimulated THP-1 cells, HTRF; for inhibition at 10 µM: THP-1, read-out: percentage in parentheses beside EC50 >10 (IL-6 inhibition)
Description: THP-1 cells were cultured in basal media with 1% FBS for 24 hours before the start of the assay. […] THP-1 cells were plated at 5000 cells/well in the 384-well plates and incubated at 37° C. for 2 h. 500 ng/mL of LPS was added after 2 hours and cells were incubated for another 22 hours at 37° C. Plates were spun in a centrifuge for 1 minute at […] and a mixture of anti-IL6 XL665, and anti-IL6 Cryptate diluted in reconstitution buffer (Cisbio Inc.) was added to each well. Following incubation for 3 hrs at room temperature, Homogeneous Time-Resolved Fluorescence (HTRF) was measured using the Envision (Perkin Elmer) at 665 nm and […]. The ratio of fluorescence at 665 nm to 620 nm was used as a readout for IL6 quantification. All samples were processed in duplicate. Readings were normalized to DMSO treated cells and normalized activities were utilized for EC50 calculations using the dose-response log (inhibitor) vs. response -variable slope (four parameters) nonlinear regression feature available in GraphPad Prism 5.0 (or Dotmatics).

| Compound | pEC50 [1] | pEC50 (SW480 colon cancer cells) | pEC50 [3] | inhibition at 10 µM [1] | inhibition at 10 µM (SW480 colon cancer cells) | pEC50 [2] | inhibition at 10 µM [2] | inhibition at 10 µM [3] |
| --- | --- | --- | --- | --- | --- | --- | --- | --- |
| CN(C)c1cncc(-c2ccc3[nH]nc(-c4cc5c(N6CCCCC6)ccnc5[nH]4)c3c2)c1 [Compound 175, N,N-Dimethyl-5-(3-(4-(piperidin-1-yl)-1H-pyrrolo[2,3-b]pyridin-2-yl)-1H-indazol-5-yl)pyridin-3-amine] | < 5.00 | < 5.00 | < 5.00 | 10.7% | 13.1% | < 5.00 | 11.3% | 15.2% |
| CN(C)Cc1cncc(-c2ccc3[nH]nc(-c4cc5c(N6CCCCC6)ccnc5[nH]4)c3c2)c1 [Compound 181, N,N-Dimethyl-1-(5-(3-(4-(piperidin-1-yl)-1H-pyrrolo[2,3-b]pyridin-2-yl)-1H-indazol-5-yl)pyridin-3-yl)methanamine] | < 5.00 | < 5.00 | < 5.00 | 26.2% | 17.6% | < 5.00 | 9.1% | 29% |
| CC(C)(C)CC(=O)Nc1cncc(-c2ccc3[nH]nc(-c4cc5c(N6CCCCC6)ccnc5[nH]4)c3c2)c1 [Compound 184, 3,3-Dimethyl-N-(5-(3-(4-(piperidin-1-yl)-1H-pyrrolo[2,3-b]pyridin-2-yl)-1H-indazol-5-yl)pyridin-3-yl)butanamide] | < 5.00 | < 5.00 | 5.40 | 11.9% | 1.6% | < 5.00 | – | – |
| c1cc(N2CCCCC2)c2cc(-c3n[nH]c4ccc(-c5cncc(CNCC6CCCC6)c5)cc34)[nH]c2n1 [Compound 193, 1-Cyclopentyl-N-((5-(3-(4-(piperidin-1-yl)-1H-pyrrolo[2,3-b]pyridin-2-yl)-1H-indazol-5-yl)pyridin-3-yl)methyl)methanamine] | < 5.00 | < 5.00 | < 5.00 | 8% | 12.5% | < 5.00 | 24.9% | 18% |
| FC1(F)CCN(Cc2cncc(-c3ccc4[nH]nc(-c5cc6c(N7CCCCC7)ccnc6[nH]5)c4c3)c2)C1 [Compound 194, 5-(5-((3,3-Difluoropyrrolidin-1-yl)methyl)pyridin-3-yl)-3-(4-(piperidin-1-yl)-1H-pyrrolo[2,3-b]pyridin-2-yl)-1H-indazole] | < 5.00 | < 5.00 | < 5.00 | 26.2% | 18.5% | 5.23 | – | 33% |
| c1cnc2[nH]c(-c3n[nH]c4ccc(-c5ccncc5)cc34)cc2c1 [Compound 270, 5-(Pyridin-4-yl)-3-(1H-pyrrolo[2,3-b]pyridin-2-yl)-1H-indazole] | < 5.00 | < 5.00 | < 5.00 | 45.7% | 15.2% | 5.19 | – | 48.3% |
| c1ncc(-c2ccc3[nH]nc(-c4cc5c(-c6ccsc6)ccnc5[nH]4)c3c2)cn1 [Compound 307, 5-(Pyrimidin-5-yl)-3-(4-(thiophen-3-yl)-1H-pyrrolo[2,3-b]pyridin-2-yl)-1H-indazole] | < 5.00 | < 5.00 | < 5.00 | 6% | 0% | < 5.00 | 0% | 45.5% |
| CN(C)Cc1cncc(-c2ccc3[nH]nc(-c4cc5c(-c6ccoc6)ccnc5[nH]4)c3c2)c1 [Compound 321, 1-(5-(3-(4-(Furan-3-yl)-1H-pyrrolo[2,3-b]pyridin-2-yl)-1H-indazol-5-yl)pyridin-3-yl)-N,N-dimethylmethanamine] | < 5.00 | < 5.00 | < 5.00 | 3.7% | 7.9% | 5.86 | – | 19% |

Continued, in another order:

| pEC50 [1] | pEC50 (SW480 colon cancer cells) | pEC50 [3] | Compound | inhibition at 10 µM [1] | inhibition at 10 µM (SW480 colon cancer cells) | pEC50 [2] | inhibition at 10 µM [2] | inhibition at 10 µM [3] |
| --- | --- | --- | --- | --- | --- | --- | --- | --- |
| < 5.00 | < 5.00 | < 5.00 | O=C(Nc1cncc(-c2ccc3[nH]nc(-c4cc5c(-c6ccccc6F)ccnc5[nH]4)c3c2)c1)C1CCCC1 [Compound 78, N-(5-(3-(4-(2-Fluorophenyl)-1H-pyrrolo[2,3-b]pyridin-2-yl)-1H-indazol-5-yl)pyridin-3-yl)cyclopentanecarboxamide] | 1.9% | 14.4% | < 5.00 | 39% | 39.9% |
| < 5.00 | 5.71 | < 5.00 | O=C(Cc1ccccc1)Nc1cncc(-c2ccc3[nH]nc(-c4cc5c(-c6ccncc6)ccnc5[nH]4)c3c2)c1 [Compound 122, 2-Phenyl-N-(5-(3-(4-(pyridin-4-yl)-1H-pyrrolo[2,3-b]pyridin-2-yl)-1H-indazol-5-yl)pyridin-3-yl)acetamide] | 28.3% | – | 5.21 | – | 47.3% |
| 6.62 | 5.22 | < 5.00 | CCC(=O)Nc1cncc(-c2ccc3[nH]nc(-c4cc5c(-c6ccccn6)ccnc5[nH]4)c3c2)c1 [Compound 141, N-(5-(3-(4-(Pyridin-2-yl)-1H-pyrrolo[2,3-b]pyridin-2-yl)-1H-indazol-5-yl)pyridin-3-yl)propionamide] | – | – | 5.78 | – | 30.3% |
| < 5.00 | < 5.00 | 5.81 | O=C(Nc1cncc(-c2ccc3[nH]nc(-c4cc5c(-c6ccccn6)ccnc5[nH]4)c3c2)c1)C1CCCCC1 [Compound 163, N-(5-(3-(4-(Pyridin-2-yl)-1H-pyrrolo[2,3-b]pyridin-2-yl)-1H-indazol-5-yl)pyridin-3-yl)cyclohexanecarboxamide] | 38.8% | 11.1% | < 5.00 | 0% | – |
| 5.91 | < 5.00 | < 5.00 | CCC(=O)Nc1cncc(-c2ccc3[nH]nc(-c4cc5c(N6CCCCC6)ccnc5[nH]4)c3c2)c1 [Compound 169, N-(5-(3-(4-(Piperidin-1-yl)-1H-pyrrolo[2,3-b]pyridin-2-yl)-1H-indazol-5-yl)pyridin-3-yl)propionamide] | – | 38.1% | < 5.00 | 11.6% | 33% |
| < 5.00 | < 5.00 | < 5.00 | O=C(Cc1ccccc1)Nc1cncc(-c2ccc3[nH]nc(-c4cc5c(N6CCCCC6)ccnc5[nH]4)c3c2)c1 [Compound 178, 2-Phenyl-N-(5-(3-(4-(piperidin-1-yl)-1H-pyrrolo[2,3-b]pyridin-2-yl)-1H-indazol-5-yl)pyridin-3-yl)acetamide] | 13.8% | 18.7% | < 5.00 | 0% | 36.5% |
| < 5.00 | < 5.00 | < 5.00 | O=C(Nc1cncc(-c2ccc3[nH]nc(-c4cc5c(N6CCCCC6)ccnc5[nH]4)c3c2)c1)C1CC1 [Compound 188, N-(5-(3-(4-(Piperidin-1-yl)-1H-pyrrolo[2,3-b]pyridin-2-yl)-1H-indazol-5-yl)pyridin-3-yl)cyclopropanecarboxamide] | 27.6% | 12.9% | < 5.00 | 17.4% | 4.1% |

From US10350199B2, “3-(1h-pyrrolo[2,3-b]pyridin-2-yl)-1h-indazoles and therapeutic uses thereof” (Samumed, LLC, priority 2015, dated 2019)
